# Data taken from patent publication EP0663826B1, “AMINO ACIDS CONTAINING PARENTERAL FORMULATIONS FOR THE TREATMENT OF HYPOTENSION AND RELATED PATHOLOGIES” (BOARD OF REGENTS THE UNIVERSITY OF TEXAS SYSTEM, priority 1991, dated 1993).
# Tests used:
# [1] = system: hypotension associated with the administration of TNF in the dog; test: TNF-induced hypotension in the dog; assay type: in vivo, dogs; conditions: L-arginine to previously untreated normotensive dogs
# Method: Recombinant human TNF, specific activity 2 x 10^7 units/mg, was from the Dainippon Chemical Corporation, Tokyo, Japan. TNF was administered at a dose of 10 µg//kg in a volume of 10 ml of phosphate buffered saline containing 17 mg/ml of dog albumin. […] Arginine was obtained from Sigma Chemical Company, St. Louis, Mo.
# Four conditioned mongrel dogs, 2 males and 2 females, weighing 28 to 30 kg, were studied. Care of the animals were in accordance with the recommendations of the American Association for Accreditation of Laboratory Animals [DHEW(DHHS) publication no. (NIH) 78-23, revised, 1978]. On the day of the experiment, the dogs were fasted overnight. They were anesthetized with phenobarbital (25 mg/kg). The animals were then intubated orally with a #10 fr. endotracheal tube and ventilated with a Harvard pump ventilator at a rate of 14 breaths per minute and a tidal volume of 15 ml/kg. An arterial line was percutaneously placed in the femoral artery on the day of the experiment.
# Mean (electronic) and phasic systemic arterial pressures (SAP) were continuously recorded on a Hewlett-Packard recording system (model 7758B) using strain gauge manometers (Hewlett-Packard model 1290A) which were connected to the arterial line. Heart rate (HR) was determined from an EKG tracing and continuously recorded on the Hewlett-Packard recording system. Oxyhemoglobin saturation (SaO2) was obtained using a pulse oximeter (BIOX 111, Boulder, CO). Continuous time-series records of SAP, HR, and SaO2 were obtained using a Lab Master analog-to-digital convertor (16 channel, 12 bit, 30 kHz; Scientific Solutions, Inc.) sampling at 55 Hz and storing the 6 sec averages on a magnetic disk.
# [2] = system: endotoxin-induced shock in dogs; test: Endotoxin-induced hypotension in dogs (with nitroglycerin and control dogs); assay type: in vivo
# Method: Animals: Studies were carried out on 12 conditioned mongrel dogs (9 males and 3 females) weighing 22-32 kg (avg=25.3 kg). Animal care was in accordance with the recommendations of the American Association for Accreditation of Laboratory Animal Care, and met all standards prescribed by the Guide for the Care and Use of Laboratory Animals (Guide for the Care and Use of Laboratory Animals (1978) Dept. of Health, Education and Welfare, Washington, D.C. (Publ. No. 78-23). Animal protocols were approved by The University of Texas Animal Welfare committee. The dogs were fasted overnight prior to the day of experimentation. They were anesthetized with sodium pentobarbital (25 mg/kg i.v.). Dogs were then endotracheally intubated and ventilated with a piston-driven respirator (Harvard instruments) using room air at a tidal volume of 15 ml/kg and at a rate of 12 to 14 breaths per minute, adjusted to achieve a normal arterial pH and pCO2 (Instrumentation Laboratories lL1302 pH/Blood Gas Analyzer). Catheters were placed percutaneously into the femoral and pulmonary arteries; In the latter, a flow-directed thermal-dilation catheter was used (Abbott Critical Care Systems).
# Physiologic measurements: Mean SAP and heart rate were continuously monitored (Parametron 7048 Monitoring System, Roche) and stored on a magnetic disk using an analog-to-digital converter (Scientific Solutions, Inc.). Cardiac output (CO) was determined as the mean of six measurements by thermal-dilution. Systemic vascular resistance was calculated as (SAP X80)/CO and expressed as dynes-sec/cm^5 (kg/s·cm^4).
# Protocol: After the blood pressure and heart rate stabilized, endotoxin (40 µg/kg, in 10 ml of phosphate-buffered saline (PBS), pH 7.4) was infused i.v. over 2 minutes. This dose of endotoxin typically induces severe and often lethal cardiovascular collapse in the dog. Blood pressure was monitored, and when either SAP fell below 60 mm Hg or a stable nadir in systemic arterial pressure (SAP) was maintained for 10 minutes, L-NMA was administered (20 mg/kg in 5 ml of PBS i.v. over 1 min.). In most experiments, L-arginine (400 mg/kg in 20 ml PBS) was administered ten minutes later by i.v. infusion over 2 minutes. In control experiments, dogs without prior exposure to endotoxin received L-NMA alone. To simulate the hypotension observed in dogs receiving endotoxin, one group of dogs received a continuous i.v. infusion of nitroglycerin (2 mg/ml) at a rate adjusted to maintain the SAP at 60-70 mm Hg. Nitroglycerin-treated dogs then received L-NMA (20 mg/kg) and 20 minutes later L-arginine was administered ([…]).
# Statistics: Statistical significance was evaluated using Student's test and either a one-tailed or two-tailed analysis as appropriate for comparisons.
compound,measurement,setting,value
N=C(N)NCCC[C@H](N)C(=O)O [L-arginine],effect on blood pressure,[1],not affected
same,ΔSAP after L-arginine,"[2]; Figure 6 dog, endotoxin and 2 doses L-NMA",-77 mm Hg
same,Cardiac Output,"[2]; Study 1: Endotoxin-treated dogs (n=4), means ± S.E., same sequence, baseline 2.99 ± 0.32",2.99 ± 0.32 L/min
same,Heart Rate,"[2]; Study 1: Endotoxin-treated dogs (n=4), means ± S.E., same sequence, baseline 119.5 ± 6.0",119.5 ± 6.0 beats/min
same,Systemic Vascular Resistance,"[2]; Study 1: Endotoxin-treated dogs (n=4), means ± S.E., same sequence, baseline 3565 ± 454",3565 ± 454 dynes-sec/cm^5
same,Systemic Arterial Pressure,"[2]; Study 1: Endotoxin-treated dogs (n=4), means ± S.E., sequence endotoxin 40 µg/kg, L-NMA 20 mg/kg, 10 min later L-arginine 400 mg/kg (measured 2 min later), baseline 128.3 ± 9.4",128.3 ± 9.4 mmHg
same,Systemic Vascular Resistance,"[2]; Study 1: Endotoxin-treated dogs (n=4), means ± S.E., value in brackets",3.565 ± 0.454 Kg/s·cm^4
same,Cardiac Output,"[2]; Study 2: Nitroglycerin-treated dogs (n=3), means ± S.E., baseline 3.14 ± 0.21",5.15 ± 1.08 L/min
same,Heart Rate,"[2]; Study 2: Nitroglycerin-treated dogs (n=3), means ± S.E., baseline 143.7 ± 12.1",148.7 ± 19.9 beats/min
same,Systemic Vascular Resistance,"[2]; Study 2: Nitroglycerin-treated dogs (n=3), means ± S.E., baseline 3294 ± 74",1088 ± 491 dynes-sec/cm^5
same,Systemic Arterial Pressure,"[2]; Study 2: Nitroglycerin-treated dogs (n=3), means ± S.E., continuous nitroglycerin (2 mg/ml) titrated to SAP 65 mm Hg, then L-NMA 20 mg/kg, then L-arginine, baseline 129.3 ± 10.2",57.0 ± 13.0 mmHg
same,Systemic Vascular Resistance,"[2]; Study 2: Nitroglycerin-treated dogs (n=3), value in brackets",1.088 ± 0.491 Kg/s·cm^4
same,effect on the pressor effect of L-NMA,"[2]; control dogs, L-arginine 400 mg/kg",fully reversed
